Values joined by “and” are separate entries in the source; they are usually repeats but may differ in a detail not shown here. Equal values may be shown once.
Assays:
[1] = tested on: ascitic form of Ehrlich tumor (ATE); test: Antitumor effect at animals with ascitic form of Ehrlich tumor (ATE) (Example 10); format: in vivo, mice ICR; conditions: for Survival (in % of control) / Survival time, Geom. mean / Tumor mass (%) of control / Tumor mass, Arithm. mean: 1st-9th day; for Tumor mass (%) of control / Tumor mass, Arithm. mean: dissection 10th day
[2] = tested on: ascitic form of Ehrlich tumor (ATE); test: Antitumor effect at animals with ascitic form of Ehrlich tumor (ATE) (Example 11);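 for all read-outs here: half of each dose group killed on day 10, tumor mass taken as animal mass lost on ascites aspiration, ascitocrit by microhematocrit centrifuge, rest followed daily for survival versus reference group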; conditions: for Survival (in % of control) / Survival time, Geom. mean / Total ascitocrit (%) of control / Total ascitocrit (mass of cell fraction of a tumor), Arithm. mean / Tumor mass (%) of control / Tumor mass, Arithm. mean: 1th-9th day; for Total ascitocrit (%) of control / Total ascitocrit (mass of cell fraction of a tumor), Arithm. mean / Tumor mass (%) of control / Tumor mass, Arithm. mean: dissection 10th day
Procedure: After termination of application, one half of animals in each dosage group was destroyed at 10th day after inoculation in ether narcosis, the ascits were sucked out after laparotomy and the mass of a tumor at each of the animals was determined from the difference of mass before and after sucking out the ascit. Ascitocrit in ascitic liquor of single animals was determined on microhematocrit centrifuge in heparinized capillary tubes of 75 mm length. The value of “total ascitocrit”corresponding to a mass of cells in ascitic liquor has been determined from percentage of ascitocrit and mass of the tumor. Remaining animals were left for monitoring the survival time. In these animals, the survival time was monitored on daily basis. The dependence of the survival time value on the applied dose was evaluated in comparison with the reference group.
The single estimated time points as biological responses were evaluated by a test of equivalence of two mean values (Student's t-test). Geometric mean was calculated from single values of survival time, arithmetic means were calculated from single values of tumor mass and total ascitocrit. Difference between mean values was evaluated by a test of equivalence of two mean values (Student's t-test) under presumption of normal probability distribution of mass values as well as of total ascitocrit values and of logarithmic/normal distribution of temporal values, all under presumption of possible unknown disseminations. Those diferences in mean values, whose values of a test criterium exceeded the critical value at the 5% and 1% significance level were evaluated as statistically significant and highly statistically significant, respectively.
The optimum dosage has been calculated from values of survival time according to the proportional risk model of Cox (Carter et al., 1982). Parameters of Weinbull distribution and logarithmic transformation of introductory data were used for estimation of a basic and modified survival function from experimental data.

[3] = tested on: mammal adenocarcinoma MC2111; test: Antitumor effect at animals with solid form of mammal adenocarcinoma MC2111 (Example 9); format: in vivo, mice DBA1; conditions: for Tumor mass (%) of control / Tumor mass, Arithm. mean: 5th-13 day, tumor size 14th day, mass from regression
leucaemia L1210 [4] = test: Antitumor effect at animals with leucaemia L1210, continual versus intermitent regimen (Example 6); format: in vivo, mice DBA2
leucaemia L1210 [5] = test: Antitumor effect at animals with leucaemia L1210, single administration (Example 4); format: in vivo, mice DBA2
leucaemia L1210 [6] = test: Antitumor effect at animals with leucaemia L1210, continual regimen (Example 7); format: in vivo, mice DBA2; conditions: for Survival (in % of control) / Survival time, Geom. mean: 1th-9th day
leucaemia L1210 [7] = test: Antitumor effect at animals with leucaemia L1210, intermitent administration 3x (Example 5); format: in vivo, mice DBA2; conditions: for Survival (in % of control) / Survival time, Geom. mean: 1st, 5th and 9th day
Gardner lymphosarcoma = test: Antitumor effect at animals with solid form of Gardner lymphosarcoma (Example 8); format: in vivo, mice C3H; conditions: for Tumor mass (%) of control / Tumor mass, Arithm. mean: 5th day, tumors weighed 14th day
[8] = 9 mg/kg/day as printed, middle dose group between 36 and 9, p.o. 3x, 1,5,9th day
[9] = 9 mg/kg/day p.o. 3x, 1,5,9th day (lowest dose group)
[10] = 12 mg/kg/day p.o. 9x, 1-9th day
[11] = 36 mg/kg/day p.o. 3x, 1,5,9th day

Question: Which results are given for `CC(=O)[O][Pt]([NH2])([Cl])([Cl])([NH]C1CCCCC1)[O]C(C)=O` [LA-2, af-bis(acetato)-b-ammin-cd-dichloro-e-(cyclohexylamine)platinum (IV) complex]?
Answer: Survival (in % of control) ([1]; 3 mg/kg/day p.o. 9x): 161%; Survival time, Geom. mean ([1]; 3 mg/kg/day p.o. 9x): 18.4 days; Tumor mass (%) of control ([1]; 3 mg/kg/day p.o. 9x): 119%; Tumor mass, Arithm. mean ([1]; 3 mg/kg/day p.o. 9x): 3.17 g; Survival (in % of control) ([1]; 6 mg/kg/day p.o. 9x): 156%; Survival time, Geom. mean ([1]; 6 mg/kg/day p.o. 9x): 17.9 days; Tumor mass (%) of control ([1]; 6 mg/kg/day p.o. 9x): 80%; Tumor mass, Arithm. mean ([1]; 6 mg/kg/day p.o. 9x): 2.13 g; Survival (in % of control) ([1]; 12 mg/kg/day p.o. 9x): 110%; Survival time, Geom. mean ([1]; 12 mg/kg/day p.o. 9x): 12.6 days; Tumor mass (%) of control ([1]; 12 mg/kg/day p.o. 9x): 79%; Tumor mass, Arithm. mean ([1]; 12 mg/kg/day p.o. 9x): 2.10 g; Significance of mean survival time increase in comparison with untreated control (p≦0.01), in words ([1]; Tab. 7-2): do not; Survival (in % of control) ([2]; 3 mg/kg/day p.o. 9x): 114%; Survival time, Geom. mean ([2]; 3 mg/kg/day p.o. 9x): 10.1 days; Total ascitocrit (%) of control ([2]; 3 mg/kg/day p.o. 9x): 108%; Total ascitocrit (mass of cell fraction of a tumor), Arithm. mean ([2]; 3 mg/kg/day p.o. 9x): 0.74 g; Tumor mass (%) of control ([2]; 3 mg/kg/day p.o. 9x): 90%; Tumor mass, Arithm. mean ([2]; 3 mg/kg/day p.o. 9x): 3.53 g; Survival time, Geom. mean ([2]; 6 mg/kg/day p.o. 9x): 13.2 days; Total ascitocrit (%) of control ([2]; 6 mg/kg/day p.o. 9x): 100%; Total ascitocrit (mass of cell fraction of a tumor), Arithm. mean ([2]; 6 mg/kg/day p.o. 9x): 0.69 g; Tumor mass (%) of control ([2]; 6 mg/kg/day p.o. 9x): 59%; Tumor mass, Arithm. mean ([2]; 6 mg/kg/day p.o. 9x): 2.32 g; Survival (in % of control) ([2]; 12 mg/kg/day p.o. 9x): 111%; Survival time, Geom. mean ([2]; 12 mg/kg/day p.o. 9x): 9.9 days; Total ascitocrit (%) of control ([2]; 12 mg/kg/day p.o. 9x): 95%; Total ascitocrit (mass of cell fraction of a tumor), Arithm. mean ([2]; 12 mg/kg/day p.o. 9x): 0.65 g; Tumor mass (%) of control ([2]; 12 mg/kg/day p.o. 9x): 70%; Tumor mass, Arithm. mean ([2]; 12 mg/kg/day p.o. 9x): 2.74 g; Evaluation of antitumor effect (survival time versus control), in words ([2]; p.o.×9, Platidiam 8 and 4 mg/kg s.c.×1, Tab. 8.1): didnot increase the survival time statistically significant; Tumor mass (%) of control ([3]; 3 mg/kg/day p.o. 9x): 86%; Tumor mass, Arithm. mean ([3]; 3 mg/kg/day p.o. 9x): 4.00 g; Tumor mass (%) of control ([3]; 6 mg/kg/day p.o. 9x): 83%; Tumor mass, Arithm. mean ([3]; 6 mg/kg/day p.o. 9x): 3.86 g; Tumor mass (%) of control ([3]; 12 mg/kg/day p.o. 9x): 77%; Tumor mass, Arithm. mean ([3]; 12 mg/kg/day p.o. 9x): 3.59 g; Survival (in % of control) ([3]; mouse, in vivo): 100% and 115% and 113%; Survival time, Geom. mean ([3]; mouse, in vivo): 21.7 days and 24.9 days and 24.5 days; Evaluation of antitumor effect, in words ([3]; p.o.×9 12, 6, 3 mg/kg/day, Platidiam 8 and 4 mg/kg s.c. once): No effect was observed; Survival (in % of control) (leucaemia L1210 [4]; 3 mg/kg/day p.o. 9x, 1-9th day): 162%; Survival time, Geom. mean (leucaemia L1210 [4]; 3 mg/kg/day p.o. 9x, 1-9th day): 18.7 days; Survival (in % of control) (leucaemia L1210 [4]; 6 mg/kg/day p.o. 9x, 1-9th day): 173%; Survival time, Geom. mean (leucaemia L1210 [4]; 6 mg/kg/day p.o. 9x, 1-9th day): 20.0 days; Survival (in % of control) (leucaemia L1210 [4]; [8]): 160%; Survival time, Geom. mean (leucaemia L1210 [4]; [8]): 18.6 days; Survival (in % of control) (leucaemia L1210 [4]; [9]): 99%; Survival time, Geom. mean (leucaemia L1210 [4]; [9]): 11.4 days; Survival (in % of control) (leucaemia L1210 [4]; [10]): 99%; Survival time, Geom. mean (leucaemia L1210 [4]; [10]): 11.5 days; Survival (in % of control) (leucaemia L1210 [4]; [11]): 130%; Survival time, Geom. mean (leucaemia L1210 [4]; [11]): 15.1 days; Evaluation of antitumor effect (survival time versus control), in words (leucaemia L1210 [4]; LA-12 6 mg/kg p.o.×9, Platidiam 8 and 4 mg/kg s.c.×1, LA-2 any of the dosage groups): antitumor uneffective; Effect at the single oral dose of 10 mg/kg for IP-L 1210, in words (leucaemia L1210 [5]; 10 mg/kg (30 mg/m^2) single oral dose): no effect; Antitumor effect (survival time versus control), in words (leucaemia L1210 [5]; mouse, in vivo): No effect has been proven; Survival (in % of control) (leucaemia L1210 [5]; mouse, in vivo): 63% and 85% and 81% and 94% and 99%; Survival time, Geom. mean (leucaemia L1210 [5]; mouse, in vivo): 8.0 days and 10.7 days and 10.3 days and 11.9 days and 12.5 days; Survival (in % of control) (leucaemia L1210 [6]; 3 mg/kg/day p.o. 9x): 214%; Survival time, Geom. mean (leucaemia L1210 [6]; 3 mg/kg/day p.o. 9x): 48.1 days; Increase of survival time value in comparison with the control group (leucaemia L1210 [6]; 3 mg/kg/day p.o.×9): 114%; Survival (in % of control) (leucaemia L1210 [6]; 6 mg/kg/day p.o. 9x): 137%; Survival time, Geom. mean (leucaemia L1210 [6]; 6 mg/kg/day p.o. 9x): 30.8 days; Survival (in % of control) (leucaemia L1210 [6]; 12 mg/kg/day p.o. 9x): 108%; Survival time, Geom. mean (leucaemia L1210 [6]; 12 mg/kg/day p.o. 9x): 24.4 days; Survival (in % of control) (leucaemia L1210 [7]; 2 mg/kg/day p.o. 3x): >129%; Survival time, Geom. mean (leucaemia L1210 [7]; 2 mg/kg/day p.o. 3x): 20.2 days; Survival (in % of control) (leucaemia L1210 [7]; 4 mg/kg/day p.o. 3x): 118%; Survival time, Geom. mean (leucaemia L1210 [7]; 4 mg/kg/day p.o. 3x): 18.5 days; Survival (in % of control) (leucaemia L1210 [7]; 8 mg/kg/day p.o. 3x): <148%; Survival time, Geom. mean (leucaemia L1210 [7]; 8 mg/kg/day p.o. 3x): 23.2 days; Optimum dose as calculated according to Carter (leucaemia L1210 [7]; intermitent oral administration 3x): 10.96 mg/kg/day p.o.×3; Tumor mass (%) of control (Gardner lymphosarcoma; 2 mg/kg p.o. 1x): 90%; Tumor mass, Arithm. mean (Gardner lymphosarcoma; 2 mg/kg p.o. 1x): 5.61 g; Tumor mass (%) of control (Gardner lymphosarcoma; 8 mg/kg p.o. 1x): 99%; Tumor mass, Arithm. mean (Gardner lymphosarcoma; 8 mg/kg p.o. 1x): 6.19 g; Tumor mass (%) of control (Gardner lymphosarcoma; 32 mg/kg p.o. 1x): 103%; Tumor mass, Arithm. mean (Gardner lymphosarcoma; 32 mg/kg p.o. 1x): 6.44 g; Effect on average mass of a tumor, in words (Gardner lymphosarcoma; single p.o. 32, 8 and 2 mg/kg): No effect has been observed
